Results from US10626112B2, “Heterocyclic sulfonamide derivative and medicine comprising same” (EA PHARMA CO., LTD., priority 2014, dated 2020).

Target: human TRPA1 (Homo sapiens (Human), UniProt O75762)
Assay: Measurement of TRPA1 antagonist activity (1): intracellular calcium increase
Assay type: cell-based
Conditions: 293T cells transfected with human TRPA1 expression plasmid; allylisothiocyanate 20 μM stimulation; intracellular calcium fluorescence; read-out: hTRPA1 IC50
Method in brief: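 Calcium-flux readout of TRPA1 block: compound given 10 min before 20 μM (final) allylisothiocyanate, fluorescence tracked 5 min. Cells were 293T transiently expressing human TRPA1, dye-loaded 1 hr in HBSS, 20 mM HEPES, pH 7.2. Inhibition scaled between agonist-only and buffer-only responses; IC50 by sigmoid fitting.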

human TRPA1, sequence (O75762 whole entry): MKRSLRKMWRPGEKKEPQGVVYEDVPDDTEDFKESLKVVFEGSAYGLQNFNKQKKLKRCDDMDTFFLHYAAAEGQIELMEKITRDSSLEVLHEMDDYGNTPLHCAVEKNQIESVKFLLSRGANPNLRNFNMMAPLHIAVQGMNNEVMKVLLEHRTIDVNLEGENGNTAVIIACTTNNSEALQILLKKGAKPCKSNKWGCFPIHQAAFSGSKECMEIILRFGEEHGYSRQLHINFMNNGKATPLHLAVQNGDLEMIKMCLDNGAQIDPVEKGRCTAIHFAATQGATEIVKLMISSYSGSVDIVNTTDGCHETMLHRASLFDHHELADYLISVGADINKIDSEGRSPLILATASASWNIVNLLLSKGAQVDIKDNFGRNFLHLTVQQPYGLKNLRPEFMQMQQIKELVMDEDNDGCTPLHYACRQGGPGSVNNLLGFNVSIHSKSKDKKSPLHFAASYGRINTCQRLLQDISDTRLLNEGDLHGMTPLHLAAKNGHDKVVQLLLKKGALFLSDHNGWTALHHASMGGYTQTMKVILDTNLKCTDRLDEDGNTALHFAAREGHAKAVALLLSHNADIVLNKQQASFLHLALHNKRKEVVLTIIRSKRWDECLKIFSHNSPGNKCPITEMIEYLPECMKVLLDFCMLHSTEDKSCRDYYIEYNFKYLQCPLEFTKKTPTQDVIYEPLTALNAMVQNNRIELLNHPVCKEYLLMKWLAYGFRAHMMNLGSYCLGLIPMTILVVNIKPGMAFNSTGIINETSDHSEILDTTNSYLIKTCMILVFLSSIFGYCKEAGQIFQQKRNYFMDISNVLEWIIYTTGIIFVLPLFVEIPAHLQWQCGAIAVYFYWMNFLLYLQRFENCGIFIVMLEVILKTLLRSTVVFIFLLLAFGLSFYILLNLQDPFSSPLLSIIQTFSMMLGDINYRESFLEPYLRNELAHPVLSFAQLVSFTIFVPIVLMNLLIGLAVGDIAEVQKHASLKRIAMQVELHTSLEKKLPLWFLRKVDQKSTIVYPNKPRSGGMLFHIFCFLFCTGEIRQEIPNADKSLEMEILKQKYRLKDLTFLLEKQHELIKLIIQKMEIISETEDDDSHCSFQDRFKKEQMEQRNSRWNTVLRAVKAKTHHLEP

SMILES | IC50
C[C@H](NS(=O)(=O)c1cc2cc(F)ccc2o1)C(=O)NCc1cc(OC(F)(F)F)ccc1F [Example 73, (2S)-2-[(5-fluorobenzofuran-2-yl)sulfonylamino]-N-[[2-fluoro-5-(trifluoromethoxy)phenyl]methyl]-propanamide] | 0.16 µM
N#Cc1cccc(-c2cc(CNC(=O)[C@@H]3CCCN3S(=O)(=O)c3cc4ccccc4o3)ccn2)c1 [Example 118, (2S)-1-(benzofuran-2-ylsulfonyl)-N-[[2-(3-cyanophenyl)-4-pyridyl]methyl]pyrrolidine-2-carboxamide] | 0.26 µM
N#Cc1ccc(-c2ccnc(CNC(=O)[C@@H]3CCCN3S(=O)(=O)c3cc4ccccc4o3)c2)nc1 [Example 152, (2S)-1-(benzofuran-2-ylsulfonyl)-N-[[4-(5-cyano-2-pyridyl)-2-pyridyl]methyl]pyrrolidine-2-carboxamide] | 0.16 µM
O=C(NCc1cccc(SCc2ccccc2)c1)[C@@H]1CCCN1S(=O)(=O)c1cc2ccccc2o1 [Example 57, (2S)-1-(benzofuran-2-ylsulfonyl)-N-[(3-benzylsulfanylphenyl)methyl]pyrrolidine-2-carboxamide] | 0.016 µM
O=C(NCc1cccc(-c2ccc(C(F)(F)F)nc2)n1)[C@@H]1CCCN1S(=O)(=O)c1cc2cc(F)ccc2o1 [Example 145, (2S)-1-(5-fluorobenzofuran-2-yl)sulfonyl-N-[[6-[6-(trifluoromethyl)-3-pyridyl]-2-pyridyl]methyl]pyrrolidine-2-carboxamide] | 0.029 µM
O=C(NCc1cccc([S+]([O-])c2ccc(C(F)(F)F)cc2)c1)[C@@H]1CCCN1S(=O)(=O)c1cc2ccccc2o1 (stereo partly drawn) [Example 323, (2S)-1-(benzofuran-2-ylsulfonyl)-N-[[3-[4-(trifluoromethyl)phenyl]sulfinylphenyl]methyl]pyrrolidine-2-carboxamide] | 0.2 µM
O=C(NCc1cc(-c2ccc(C(F)(F)F)nc2)cnn1)[C@@H]1CCCN1S(=O)(=O)c1cc2ccccc2o1 [Example 211, (2S)-1-(benzofuran-2-ylsulfonyl)-N-[[5-[6-(trifluoromethyl)-3-pyridyl]pyridazin-3-yl]methyl]pyrrolidine-2-carboxamide] | 0.072 µM
O=C(NCc1cccc(OCc2ccco2)c1)[C@@H]1CCCN1S(=O)(=O)c1cc2ccccc2o1 [Example 4, (2S)-1-(benzofuran-2-ylsulfonyl)-N-[[3-(2-furylmethoxy)phenyl]methyl]pyrrolidine-2-carboxamide] | 0.023 µM
CC(C)COc1nc(CNC(=O)[C@@H]2CCCN2S(=O)(=O)c2cc3ccccc3o2)cc(-c2ccc(C(F)(F)F)cc2)n1 [Example 311, (2S)-1-(benzofuran-2-ylsulfonyl)-N-[[2-isobutoxy-6-[4-(trifluoromethyl)phenyl]pyrimidin-4-yl]methyl]pyrrolidine-2-carboxamide] | 0.0037 µM
C[C@H](NS(=O)(=O)c1cc2cc(F)ccc2o1)C(=O)NCc1ccc(O)c(-c2ncc(C(F)(F)F)cn2)c1 [Example 253, (2S)-2-[(5-fluorobenzofuran-2-yl)sulfonylamino]-N-[[4-hydroxy-3-[5-(trifluoromethyl)pyrimidin-2-yl]phenyl]methyl]propanamide] | 0.16 µM
O=C(NCc1ccc(-c2ccccc2)cc1)[C@@H]1CCCN1S(=O)(=O)c1cc2cc(F)ccc2o1 [Example 76, (2S)-1-(5-fluorobenzofuran-2-yl)sulfonyl-N-[(4-phenylphenyl)methyl]pyrrolidine-2-carboxamide] | 0.047 µM
Cc1ccc(COc2cccc(CNC(=O)[C@@H]3CCCN3S(=O)(=O)c3cc4cc(F)ccc4o3)c2)cn1 [Example 19, (2S)-1-(5-fluorobenzofuran-2-yl)sulfonyl-N-[[3-[(6-methyl-3-pyridyl)methoxy]phenyl]-methyl]pyrrolidine-2-carboxamide] | 0.014 µM
CC(C)(C)OC(=O)Nc1ccccc1-c1cc(CNC(=O)[C@@H]2CCCN2S(=O)(=O)c2cc3ccccc3o2)ccn1 [Example 276, N-[2-[4-[[[(2S)-1-(benzofuran-2-ylsulfonyl)pyrrolidine-2-carbonyl]amino]methyl]-2-pyridyl]phenyl]carbamic acid tert-butyl] | 0.15 µM
C[C@H](NS(=O)(=O)c1cc2cc(F)ccc2o1)C(=O)NCc1cccc(-c2ncc(C(F)(F)F)cn2)c1 [Example 232, (2S)-2-[(5-fluorobenzofuran-2-yl)sulfonylamino]-N-[[3-[5-(trifluoromethyl)pyrimidin-2-yl]phenyl]methyl]propanamide] | 0.077 µM
O=C(NCc1cccc(Oc2ccc(C(F)(F)F)cc2)c1)[C@@H]1CCCN1S(=O)(=O)c1cc2ccccc2o1 [Example 52, (2S)-1-(benzofuran-2-ylsulfonyl)-N-[[3-[4-(trifluoromethyl)phenoxy]phenyl]-methyl]pyrrolidine-2-carboxamide] | 0.032 µM
O=C(NCc1ccnc(-c2cccc(F)c2)c1)[C@@H]1CCCN1S(=O)(=O)c1cc2ccccc2o1 [Example 113, (2S)-1-(benzofuran-2-ylsulfonyl)-N-[[2-(3-fluorophenyl)-4-pyridyl]methyl]pyrrolidine-2-carboxamide] | 0.12 µM

Further compounds by falling IC50, results first:

IC50 | SMILES
0.014 µM | C[C@H](NS(=O)(=O)c1cc2cc(F)ccc2o1)C(=O)NCc1cc(-c2ccc(C(F)(F)F)cn2)ccn1 [Example 240, (2S)-2-[(5-fluorobenzofuran-2-yl)sulfonylamino]-N-[[4-[5-(trifluoromethyl)-2-pyridyl]-2-pyridyl]methyl]propanamide]
0.013 µM | O=C(NCc1ccnc(-c2ccc(C(F)(F)F)cc2)c1)[C@@H]1CC(F)(F)CN1S(=O)(=O)c1cc2cc(F)ccc2o1 [Example 99, (2S)-4,4-difluoro-1-(5-fluorobenzofuran-2-yl)sulfonyl-N-[[2-[4-(trifluoromethyl)phenyl]-4-pyridyl]methyl]pyrrolidine-2-carboxamide]
0.01 µM | O=C(NCc1cccc(-c2ncc(C(F)(F)F)cn2)c1)[C@@H]1CCCN1S(=O)(=O)c1cc2ccccc2o1 [Example 194, (2S)-1-(benzofuran-2-ylsulfonyl)-N-[[3-[5-(trifluoromethyl)pyrimidin-2-yl]phenyl]-methyl]pyrrolidine-2-carboxamide]
0.0082 µM | O=C(NCc1cccc(OCc2cccc(CN3CCOCC3)c2)c1)[C@@H]1CCCN1S(=O)(=O)c1cc2cc(F)ccc2o1 [Example 27, (2S)-1-(5-fluorobenzofuran-2-yl)sulfonyl-N-[[3-[[3-(morpholinomethyl)phenyl]-methoxy]phenyl]methyl]-pyrrolidine-2-carboxamide]
0.0062 µM | O=C(NCc1cccc(OCc2ccc(C(F)(F)F)nc2)c1)[C@@H]1CCCN1S(=O)(=O)c1cc2ccccc2o1 [Example 8, (2S)-1-(benzofuran-2-ylsulfonyl)-N-[[3-[[6-(trifluoromethyl)-3-pyridyl]methoxy]phenyl]-methyl]pyrrolidine-2-carboxamide]
0.0032 µM | O=C(NCc1cc(-c2ccc(OC(F)(F)F)cc2)ncn1)[C@@H]1CCCN1S(=O)(=O)c1cc2ccccc2o1 [Example 203, (2S)-1-(benzofuran-2-ylsulfonyl)-N-[[6-[4-(trifluoromethoxy)phenyl]-pyrimidin-4-yl]methyl]pyrrolidine-2-carboxamide]
0.0028 µM | O=C(NCc1cncc(-c2ccc(OC(F)(F)F)cc2)c1)[C@@H]1CCCN1S(=O)(=O)c1cc2cc(F)ccc2o1 [Example 279, (2S)-1-(5-fluorobenzofuran-2-yl)sulfonyl-N-[[5-[4-(trifluoromethoxy)phenyl]-3-pyridyl]methyl]pyrrolidine-2-carboxamide]
0.0023 µM | O=C(NCc1cc(-c2ccc(C(F)(F)F)cn2)ccn1)[C@@H]1[C@H]2CC[C@H](C2)N1S(=O)(=O)c1cc2cc(F)ccc2o1 [Example 262, (1S,2S,4R)-3-(5-fluorobenzofuran-2-yl)sulfonyl-N-[[4-[5-(trifluoromethyl)-2-pyridyl]-2-pyridyl]methyl]-3-azabicyclo[2.2.1]heptane-2-carboxamide]
0.0022 µM | O=C(NCc1ccc(O)c(-c2ccc(C(F)(F)F)cn2)c1)[C@@H]1CCCN1S(=O)(=O)c1cc2ccccc2o1 [Example 193, (2S)-1-(benzofuran-2-ylsulfonyl)-N-[[4-hydroxy-3-[5-(trifluoromethyl)-2-pyridyl]phenyl]methyl]pyrrolidine-2-carboxamide]
0.0022 µM | O=C(NCc1cncc(-c2ccc(C(F)(F)F)nc2)c1)[C@@H]1CCCN1S(=O)(=O)c1cc2cc(F)ccc2o1 [Example 140, (2S)-1-(5-fluorobenzofuran-2-yl)sulfonyl-N-[[5-[6-(trifluoromethyl)-3-pyridyl]-3-pyridyl]methyl]pyrrolidine-2-carboxamide]
0.0012 µM | O=C(NCc1cc(-c2ccc(C(F)(F)F)cc2)ncn1)[C@@H]1CCCN1S(=O)(=O)c1cc2ccccc2o1 [Example 84, (2S)-1-(benzofuran-2-ylsulfonyl)-N-[[6-[4-(trifluoromethyl)phenyl]pyrimidin-4-yl]methyl]pyrrolidine-2-carboxamide]
0.0012 µM | O=C(NCc1cccc(-c2ccc(C(F)(F)F)cn2)c1)[C@@H]1CCCN1S(=O)(=O)c1cc2ccccc2o1 [Example 80, (2S)-1-(benzofuran-2-ylsulfonyl)-N-[[3-[5-(trifluoromethyl)-2-pyridyl]phenyl]methyl]pyrrolidine-2-carboxamide]
0.00066 µM | O=C(NCc1cc(-c2ccc(C(F)(F)F)nc2)ncn1)[C@@H]1CCCN1S(=O)(=O)c1cc2cc(F)ccc2o1 [Example 224, (2S)-1-(5-fluorobenzofuran-2-yl)sulfonyl-N-[[6-[6-(trifluoromethyl)-3-pyridyl]pyrimidin-4-yl]methyl]pyrrolidine-2-carboxamide]
0.00048 µM | O=C(NCc1cccc(-c2ccc(C(F)(F)F)cc2)c1)[C@@H]1CCCN1S(=O)(=O)c1cc2cc(F)ccc2o1 [Example 157, (2S)-1-(5-fluorobenzofuran-2-yl)sulfonyl-N-[[3-[4-(trifluoromethyl)phenyl]-phenyl]methyl]pyrrolidine-2-carboxamide]
